Experimental data as given in patent publication US10981893B2, “Therapeutic inhibitory compounds” (Attune Pharmaceuticals, Inc., priority 2015, dated 2021).

Assays:
human Plasma Kallikrein = human Plasma Kallikrein (Homo sapiens (Human), UniProt P03952); assay: In vitro enzyme inhibition of human plasma kallikrein (Pro-Phe-Arg-AMC cleavage); assay type: biochemical; conditions: PFR-AMC substrate, 37° C., read-out: hPK IC50
Procedure: The ability of the compounds disclosed herein to inhibit human plasma kallikrein activity was quantified according to the procedures below.
A 10 mM solution of the test compound was made in DMSO. This solution was serially diluted 1:5 in DMSO to yield 2000, 400, 80, 16, 3.2, 0.64, 0.128, 0.0256 and 0.00512 μM compound test solutions. A control tube containing only DMSO is included. 16 μL of each compound test solution was combined with 384 μL of assay buffer (50 mM Tris-HCl pH 7.5, 150 mM NaCl, 0.01% Triton X-100) to yield a “4× test compound buffer stock”.
Separately, a 40 nM solution of human Plasma Kallikrein (Abcam) and a 93.6 μM solution Pro-Phe-Arg-AMC (Bachem) were made using assay buffer. These solutions are hereby refereed to as 4×hPK and 2×PFR-AMC, respectively.
60 μL of each 4× test compound buffer stock was combined with 60 μL of 4× hPK to yield 120 μL of “2× test compound buffer stock/2×hPK”. 50 μL was removed from this mixture and placed into duplicate wells on a Microfluor 1 Black U-bottom microtiter plate (Thermo Scientific). This plate was incubated for 5 minutes at 37° C. To each well, 50 μL of pre-warmed 2×PFR-AMC was added to start the enzymatic reaction. Cleavage of PFR-AMC was monitored in a Biotek Synergy H4 reader set at 37° C. Readings are taken every 43 seconds for 1 hour. The highest mean velocity over 20 reads (˜15 minutes) is used to calculate the IC50. The IC50 is calculated using the Gen5 (Biotek Instruments).
The ability of the compounds in Table 1 to inhibit human plasma kallikrein activity was determined and the data is shown in Table 3.

[1] = target: kallikrein in human plasma (Homo sapiens (Human), UniProt P03952); assay: In vitro cellular assay / contact assay: kallikrein activity in ellagic acid-activated human plasma (Z-FR-2-AMC substrate); assay type: biochemical; conditions: human plasma activated with ellagic acid, 37° C.
Chain of kallikrein in human plasma (P03952 391-638 limits assumed): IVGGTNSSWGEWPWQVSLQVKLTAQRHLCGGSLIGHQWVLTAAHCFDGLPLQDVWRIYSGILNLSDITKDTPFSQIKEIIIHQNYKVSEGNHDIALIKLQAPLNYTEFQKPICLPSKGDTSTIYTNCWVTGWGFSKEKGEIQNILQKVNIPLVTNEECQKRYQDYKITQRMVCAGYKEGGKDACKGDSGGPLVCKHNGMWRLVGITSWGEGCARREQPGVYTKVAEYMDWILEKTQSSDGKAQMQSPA
Chain of kallikrein in human plasma (P03952 20-390 partner limits assumed): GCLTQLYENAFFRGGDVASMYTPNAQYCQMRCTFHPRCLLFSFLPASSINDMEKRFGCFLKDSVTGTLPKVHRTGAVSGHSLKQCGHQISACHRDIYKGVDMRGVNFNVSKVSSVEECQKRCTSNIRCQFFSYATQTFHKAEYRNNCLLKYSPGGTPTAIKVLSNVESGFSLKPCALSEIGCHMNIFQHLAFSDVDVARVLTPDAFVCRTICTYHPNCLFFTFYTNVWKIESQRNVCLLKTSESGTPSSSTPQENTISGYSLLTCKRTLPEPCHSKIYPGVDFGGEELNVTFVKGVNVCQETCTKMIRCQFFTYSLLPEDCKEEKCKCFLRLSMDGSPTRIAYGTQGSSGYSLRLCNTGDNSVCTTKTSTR
Procedure: The ability of the compounds disclosed herein to inhibit cellular kallikrein activity was quantified and the respective EC50 value was determined.
Plasma kallikrein inhibitor C1NH (Athens Research & Technology, Cat #16-16-031509); Ellagic acid (Sigma, E2250); Substrate Z—FR-2-AMC (GL Biochem, Cat #55352); Nunc™ 96-Well Polypropylene MicroWell™ Plates (Nunc, Cat #267342)
All dilutions were prepared in an assay buffer comprising 50 mM Tris-HCl pH 7.2, 150 mM NaCl, and 0.01% Triton X-100.
Four fold serial dilutions were prepared from a 107.53 μM plasma kallikrein inhibitor C1NH stock solution, to yield ten solutions with concentrations between 20 μM and […]. Similarly, four fold serial dilutions were prepared from 10 mM stock solutions of various test compounds, to yield ten solutions with concentrations between 4 mM and 0.015 μM. The ten solutions of the test compounds, prepared by serial dilution, were further diluted 50-fold in the assay buffer.
Human plasma is thawed on ice and centrifuged for 15 min at 4° C. to remove platelets. A 1 mM stock solution of ellagic acid is diluted to 8 μM and mixed with human plasma, after removing platelets, at a ratio of 1:0.8. The mixture of human plasma and ellagic acid was further diluted 32-fold in the assay buffer, to yield the final mixture for use in the inhibition assay.
A 22.5 μL volume of the final mixture of human plasma and ellagic acid was added to a 96-well microwell plate and the plate was incubated for 15 min at 37° C.
The test compounds at various concentrations, also prepared by serial dilutions as described above, are added to the test wells. The volume of test compound added to each test well was 12.5 μL, to yield final concentrations of 20 μM, 5 μM, 1.25 μM, 312.5 nM, 78.125 nM, 19.531 nM, 4.883 nM, 1.221 nM, 0.305 nM, and 0.076 nM. Each test compound concentration was tested in duplicates.
In addition to the inhibitor control and test wells, the 96 well assay plate includes positive control wells which contained the mixture of human plasma and ellagic acid without C1NH inhibitor or test compounds, and background wells which contained neither the mixture of human plasma and ellagic acid nor the test compounds. The total volume of liquid in positive control and background wells was brought up to 35 μL, using the assay buffer.
The assay plate containing C1NH inhibitors and test compounds mixed with human plasma and ellagic acid and appropriate controls was incubated at 37° C. for 5 min. A 10 mM stock solution of substrate Z—FR-2-AMC was diluted to 133.2 μM in the assay buffer, and 15 μL of the diluted substrate was added to each well, to yield a final substrate concentration of 40 μM in each well. […]
The enzyme reaction was quantified by immediate kinetic reading of the assay plate using excitation/emission wavelengths of 330 nm/440 nm respectively. Fluorescence intensity was recorded for 60 min, using a time interval of 43 sec.
The inhibition activity of the test compounds were evaluated using the IC50 values, calculated according to the dose-response curve of the test compounds, fitted using the “log(inhibitor)-response(variable slope)” equation in GraphPadPrism software (GraphPad Software, Inc.).
The percentage inhibition was calculated using the following equation:
[formula] where, Mean(BG) is the average value of the fluorescence intensity of the background wells and Mean(PC) is the average value of the fluorescence intensity of the positive control wells. […]

Chain of human Plasma Kallikrein (P03952 391-638 limits assumed): as the sequence (P03952 391-638 limits assumed) above
Chain of human Plasma Kallikrein (P03952 20-390 partner limits assumed): as the sequence (P03952 20-390 partner limits assumed) above

SMILES | IC50 (human Plasma Kallikrein) [µM] | EC50 [1] [µM]
O=C(NCc1n[nH]c2ccc(Cl)cc12)c1cncc(Cc2ccccc2C(F)(F)F)c1 [Example 1, N-((5-chloro-1H-indazol-3-yl)methyl)-5-(2-(trifluoromethyl)benzyl)nicotinamide] | 1 to 10 | 
N#Cc1ccc(Cc2cncc(C(=O)NCc3n[nH]c4ccc(Cl)cc34)c2)cc1 [Example 2, N-((5-chloro-1H-indazol-3-yl)methyl)-5-(4-cyanobenzyl)nicotinamide] | 1 to 10 | 
O=C(NCc1n[nH]c2ccc(Cl)cc12)c1cncc(Cc2ccc(C(F)(F)F)cc2)c1 [Example 3, N-((5-chloro-1H-indazol-3-yl)methyl)-5-(4-(trifluoromethyl)benzyl)nicotinamide] | 1 to 10 | 
Cc1ccc(Cc2cncc(C(=O)NCc3n[nH]c4ccc(Cl)cc34)c2)cc1 [Example 4, N-((5-chloro-1H-indazol-3-yl)methyl)-5-(4-methylbenzyl)nicotinamide] | 1 to 10 | 
O=C(NCc1n[nH]c2ccc(Cl)cc12)c1cncc(Cc2ccccc2)c1 [Example 5, 5-benzyl-N-((5-chloro-1H-indazol-3-yl)methyl)nicotinamide] | 1 to 10 | 
NC(=O)c1ccccc1Cc1cncc(C(=O)NCc2n[nH]c3ccc(Cl)cc23)c1 [Example 6, 5-(2-carbamoylbenzyl)-N-((5-chloro-1H-indazol-3-yl)methyl)nicotinamide] | 1 to 10 | 
N#Cc1cnn(Cc2cncc(C(=O)NCc3cc4c(Cl)c[nH]c4cc3F)c2)c1 [Example 7, N-((3-chloro-6-fluoro-1H-indol-5-yl)methyl)-5-((4-cyano-1H-pyrazol-1-yl)methyl)nicotinamide] | 1 to 10 | 
NC(=O)c1cnn(Cc2cncc(C(=O)NCc3cc4c(Cl)c[nH]c4cc3F)c2)c1 [Example 8, 5-((4-carbamoyl-1H-pyrazol-1-yl)methyl)-N-((3-chloro-6-fluoro-1H-indol-5-yl)methyl)nicotinamide] | > 10 | 
CC(=O)N(Cc1ccn(Cc2cc(C(=O)NCc3cc4c(Cl)c[nH]c4cc3F)ccn2)n1)C1CC1 [Example 9, N-((3-chloro-6-fluoro-1H-indol-5-yl)methyl)-2-((3-((N-cyclopropylacetamido)methyl)-1H-pyrazol-1-yl)methyl)isonicotinamide] | > 10 | 
NC(=O)C(NC(=O)c1cncc(Cc2ccc(Cn3ccccc3=O)cc2)c1)c1n[nH]c2ccc(Cl)cc12 (centres unmarked) [Example 11, N-(2-amino-1-(5-chloro-1H-indazol-3-yl)-2-oxoethyl)-5-(4-((2-oxopyridin-1(2H)-yl)methyl)benzyl)nicotinamide] | 1 to 10 | 
O=C(NC(C(=O)O)c1n[nH]c2ccc(Cl)cc12)c1cncc(Cc2ccc(Cn3ccccc3=O)cc2)c1 (centres unmarked) [Example 12, 2-(5-chloro-1H-indazol-3-yl)-2-(5-(4-((2-oxopyridin-1(2H)-yl)methyl)benzyl)nicotinamido)acetic acid] | 1 to 10 | 
NC(=O)c1ccc(CNC(=O)c2cncc(Cc3ccc(Cn4ccccc4=O)cc3)c2)cc1 [Example 14, N-(4-carbamoylbenzyl)-5-(4-((2-oxopyridin-1(2H)-yl)methyl)benzyl)nicotinamide] | 1 to 10 | 
O=C(NCc1ccc(Cl)cc1)c1cncc(Cc2ccc(Cn3ccccc3=O)cc2)c1 [Example 15, N-(4-chlorobenzyl)-5-(4-((2-oxopyridin-1(2H)-yl)methyl)benzyl)nicotinamide] | 1 to 10 | 
COc1ccc(CNC(=O)c2cncc(Cc3ccc(Cn4ccccc4=O)cc3)c2)cc1 [Example 16, N-(4-methoxybenzyl)-5-(4-((2-oxopyridin-1(2H)-yl)methyl)benzyl)nicotinamide] | 1 to 10 | 
O=C(NCc1cc2c(Cl)c[nH]c2cc1F)c1ccc(=O)n(CC23CC(Cn4ccccc4=O)(C2)C3)c1 [Example 17, N-((3-chloro-6-fluoro-1H-indol-5-yl)methyl)-6-oxo-1-((3-((2-oxopyridin-1(2H)-yl)methyl)bicyclo[1.1.1]pentan-1-yl)methyl)-1,6-dihydropyridine-3-carboxamide] | 1 to 10 | 
O=C(NCc1ccc(Br)c(F)c1)c1ccnc(Cc2ccc(Cn3ccccc3=O)cc2)c1 [Example 18, N-(4-bromo-3-fluorobenzyl)-2-(4-((2-oxopyridin-1(2H)-yl)methyl)benzyl)isonicotinamide] | > 10 | 
Cc1cc(C#N)ccc1CNC(=O)c1ccnc(Cc2ccc(Cn3ccccc3=O)cc2)c1 [Example 19, N-(4-cyano-2-methylbenzyl)-2-(4-((2-oxopyridin-1(2H)-yl)methyl)benzyl)isonicotinamide] | > 10 | 
CS(=O)(=O)c1cc(Cc2cc(C(=O)NCc3ccc4c(N)noc4c3)ccn2)ccc1Cn1ccccc1=O [Example 20, N-((3-aminobenzo[d]isoxazol-6-yl)methyl)-2-(3-(methylsulfonyl)-4-((2-oxopyridin-1(2H)-yl)methyl)benzyl)isonicotinamide] | 0.1 to 1 | 
Cc1cc(N)nc(C)c1CNC(=O)c1ccc(=O)n(Cc2ccc3ncc(Cl)cc3c2)c1 [Example 21, N-((6-amino-2,4-dimethylpyridin-3-yl)methyl)-1-((3-chloroquinolin-6-yl)methyl)-6-oxo-1,6-dihydropyridine-3-carboxamide] | ≤ 0.1 | ≤ 0.1
Cc1cc(N)nc(C)c1CNC(=O)c1cncc(Cc2ccc3ncc(Cl)cc3c2)c1 [Example 22, N-((6-amino-2,4-dimethylpyridin-3-yl)methyl)-5-((3-chloroquinolin-6-yl)methyl)nicotinamide] | ≤ 0.1 | ≤ 0.1
Cc1cc(N)nc(C)c1CNC(=O)c1ccnc(Cc2ccc3ncc(Cl)cc3c2)n1 [Example 24, N-((6-amino-2,4-dimethylpyridin-3-yl)methyl)-2-((3-chloroquinolin-6-yl)methyl)pyrimidine-4-carboxamide] | ≤ 0.1 | 
CS(=O)(=O)c1cc(Cc2cc(C(=O)NCc3ccc(N)nc3C(F)(F)F)ccn2)ccc1Cn1ccccc1=O [Example 26, N-((6-amino-2-(trifluoromethyl)pyridin-3-yl)methyl)-2-(3-(methylsulfonyl)-4-((2-oxopyridin-1(2H)-yl)methyl)benzyl)isonicotinamide] | 1 to 10 | 
CS(=O)(=O)c1cc(Cc2cc(C(=O)NCc3cnc(N)cc3C(F)(F)F)ccn2)ccc1Cn1ccccc1=O [Example 27, N-((6-amino-4-(trifluoromethyl)pyridin-3-yl)methyl)-2-(3-(methylsulfonyl)-4-((2-oxopyridin-1(2H)-yl)methyl)benzyl)isonicotinamide] | 0.1 to 1 | 
CS(=O)(=O)c1cc(Cc2cc(C(=O)NCc3n[nH]c4ccc(Cl)cc34)ccn2)ccc1Cn1ccccc1=O [Example 30, N-((5-chloro-1H-indazol-3-yl)methyl)-2-(3-(methylsulfonyl)-4-((2-oxopyridin-1(2H)-yl)methyl)benzyl)isonicotinamide] | ≤ 0.1 | 
